According to paper PMC9234961 (Journal of Medicinal Chemistry, 2022):
Where two headings read alike, the source gives them in different places.

Experiments:
[1] = target: kinases (468) (Homo sapiens, UniProt O00506); conditions: kinase YSK1 (Entrez STK25); compound concentration 1000 nM
[2] = target: kinases (468) (Homo sapiens, UniProt O43283); conditions: LZK (MAP3K13); 1000 nM
[3] = target: kinases (468) (Homo sapiens, UniProt O75582); conditions: compound concentration 1000 nM
[4] = target: kinases (468) (Homo sapiens, UniProt O75716); conditions: kinase STK16 (Entrez STK16); compound concentration 1000 nM
[5] = target: kinases (468) (Homo sapiens, UniProt O76039); conditions: CDKL5; 1000 nM
[6] = target: kinases (468) (Homo sapiens, UniProt O95747); conditions: OSR1 (OXSR1); 1000 nM
[7] = target: kinases (468) (Homo sapiens, UniProt O96017); conditions: CHEK2; 1000 nM
[8] = target: kinases (468) (Homo sapiens, UniProt P00533, DEL752-759); conditions: EGFR(S752-I759del); 1000 nM
[9] = target: kinases (468) (Homo sapiens, UniProt P00533, L858R); conditions: EGFR(L858R); 1000 nM
[10] = target: kinases (468) (Homo sapiens, UniProt P07948); conditions: LYN; 1000 nM
[11] = target: kinases (468) (Homo sapiens, UniProt P07949, V804M); conditions: kinase RET(V804M) (Entrez RET); compound concentration 1000 nM
[12] = target: kinases (468) (Homo sapiens, UniProt P10721, V559D/V654A); conditions: KIT(V559D,V654A); 1000 nM
[13] = target: kinases (468) (Homo sapiens, UniProt P22455); conditions: FGFR4; 1000 nM
[14] = target: kinases (468) (Homo sapiens, UniProt P29376); conditions: LTK; 1000 nM
[15] = target: kinases (468) (Homo sapiens, UniProt P29597); conditions: compound concentration 1000 nM
[16] = target: kinases (468) (Homo sapiens, UniProt P36888, N841I); conditions: FLT3(N841I); 1000 nM
[17] = target: kinases (468) (Homo sapiens, UniProt P42336, E545K); conditions: PIK3CA(E545K); 1000 nM
[18] = target: kinases (468) (Homo sapiens, UniProt P49759); conditions: CLK1; 1000 nM
[19] = target: kinases (468) (Homo sapiens, UniProt P54764); conditions: EPHA4; 1000 nM
[20] = target: kinases (468) (Homo sapiens, UniProt Q04912); conditions: MST1R; 1000 nM
[21] = target: kinases (468) (Homo sapiens, UniProt Q08345); conditions: DDR1; 1000 nM
[22] = target: kinases (468) (Homo sapiens, UniProt Q13164); conditions: ERK5 (MAPK7); 1000 nM
[23] = target: kinases (468) (Homo sapiens, UniProt Q14289); conditions: PYK2 (PTK2B); 1000 nM
[24] = target: kinases (468) (Homo sapiens, UniProt Q15375); conditions: EPHA7; 1000 nM
[25] = target: kinases (468) (Homo sapiens, UniProt Q5S007, G2019S); conditions: LRRK2(G2019S); 1000 nM
[26] = target: kinases (468) (Homo sapiens, UniProt Q6PHR2); conditions: kinase ULK3 (Entrez ULK3); compound concentration 1000 nM
[27] = target: kinases (468) (Homo sapiens, UniProt Q86Y07); conditions: kinase VRK2 (Entrez VRK2); compound concentration 1000 nM
[28] = target: kinases (468) (Homo sapiens, UniProt Q99558); conditions: NIK (MAP3K14); 1000 nM
[29] = target: kinases (468) (Homo sapiens, UniProt Q9BXA7); conditions: kinase TSSK1B (Entrez TSSK1B); compound concentration 1000 nM
[30] = target: kinases (468) (Homo sapiens, UniProt Q9H093); conditions: kinase SNARK (Entrez NUAK2); compound concentration 1000 nM
[31] = target: kinases (468) (Homo sapiens, UniProt Q9P289); conditions: MST4; 1000 nM
[32] = target: kinases (468) (Homo sapiens, UniProt Q9UL54); conditions: kinase TAOK2 (Entrez TAOK2); compound concentration 1000 nM
[33] = target: kinases (468) (Homo sapiens, UniProt Q9Y463); conditions: DYRK1B; 1000 nM

kinases (468) (Homo sapiens, UniProt O75582), sequence (O75582 whole entry): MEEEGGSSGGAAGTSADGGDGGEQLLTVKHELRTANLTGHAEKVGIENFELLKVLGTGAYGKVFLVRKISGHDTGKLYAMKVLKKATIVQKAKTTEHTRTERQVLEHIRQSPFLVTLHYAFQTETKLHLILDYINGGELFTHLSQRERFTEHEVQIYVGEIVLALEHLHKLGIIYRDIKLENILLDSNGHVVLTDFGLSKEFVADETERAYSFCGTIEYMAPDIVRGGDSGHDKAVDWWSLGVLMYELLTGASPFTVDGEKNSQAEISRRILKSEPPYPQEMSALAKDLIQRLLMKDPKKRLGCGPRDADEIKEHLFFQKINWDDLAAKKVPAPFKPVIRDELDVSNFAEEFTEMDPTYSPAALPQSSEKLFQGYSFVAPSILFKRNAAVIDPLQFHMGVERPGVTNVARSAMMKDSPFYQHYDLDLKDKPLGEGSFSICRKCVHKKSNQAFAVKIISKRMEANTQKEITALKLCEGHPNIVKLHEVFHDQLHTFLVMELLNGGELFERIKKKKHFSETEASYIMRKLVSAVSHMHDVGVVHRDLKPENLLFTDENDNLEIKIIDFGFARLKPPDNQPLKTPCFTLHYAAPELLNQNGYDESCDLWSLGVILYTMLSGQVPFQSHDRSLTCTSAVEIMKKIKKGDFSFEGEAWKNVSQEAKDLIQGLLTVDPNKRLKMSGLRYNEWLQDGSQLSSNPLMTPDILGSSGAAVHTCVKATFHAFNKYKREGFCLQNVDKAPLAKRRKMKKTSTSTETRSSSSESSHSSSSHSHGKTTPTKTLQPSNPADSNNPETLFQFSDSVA
kinases (468) (Homo sapiens, UniProt P29597), sequence (P29597 whole entry): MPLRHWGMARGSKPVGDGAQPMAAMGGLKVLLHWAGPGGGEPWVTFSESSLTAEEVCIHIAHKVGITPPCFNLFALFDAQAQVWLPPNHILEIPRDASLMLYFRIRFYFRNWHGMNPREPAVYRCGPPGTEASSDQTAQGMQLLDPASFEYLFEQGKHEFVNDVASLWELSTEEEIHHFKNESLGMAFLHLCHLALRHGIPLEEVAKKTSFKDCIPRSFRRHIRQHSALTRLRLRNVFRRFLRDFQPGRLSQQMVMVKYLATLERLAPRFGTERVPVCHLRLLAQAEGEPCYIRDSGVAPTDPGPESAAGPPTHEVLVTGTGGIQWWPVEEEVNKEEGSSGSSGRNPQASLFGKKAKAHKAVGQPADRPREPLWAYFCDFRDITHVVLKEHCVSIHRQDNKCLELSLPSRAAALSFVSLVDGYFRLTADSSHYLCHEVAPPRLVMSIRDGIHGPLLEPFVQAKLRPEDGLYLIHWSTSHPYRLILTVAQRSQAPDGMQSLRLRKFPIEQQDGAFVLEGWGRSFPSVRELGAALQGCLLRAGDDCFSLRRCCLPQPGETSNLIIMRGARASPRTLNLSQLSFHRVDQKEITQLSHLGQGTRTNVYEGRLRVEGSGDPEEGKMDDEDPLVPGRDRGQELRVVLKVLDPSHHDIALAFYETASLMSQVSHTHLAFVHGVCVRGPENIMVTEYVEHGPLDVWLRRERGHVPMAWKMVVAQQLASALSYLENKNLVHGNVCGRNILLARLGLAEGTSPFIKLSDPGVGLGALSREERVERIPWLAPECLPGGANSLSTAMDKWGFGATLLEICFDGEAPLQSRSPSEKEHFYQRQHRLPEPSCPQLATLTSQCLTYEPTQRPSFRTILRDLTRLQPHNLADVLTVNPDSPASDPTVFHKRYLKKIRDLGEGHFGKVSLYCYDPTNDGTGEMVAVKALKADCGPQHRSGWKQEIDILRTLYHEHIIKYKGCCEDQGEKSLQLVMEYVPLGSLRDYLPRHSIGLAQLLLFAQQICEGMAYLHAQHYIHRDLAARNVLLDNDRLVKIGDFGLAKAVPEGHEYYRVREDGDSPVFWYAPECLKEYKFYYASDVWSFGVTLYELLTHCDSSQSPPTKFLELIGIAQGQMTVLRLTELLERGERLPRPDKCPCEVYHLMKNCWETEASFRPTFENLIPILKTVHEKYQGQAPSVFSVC
kinases (468) (Homo sapiens, UniProt Q6PHR2), sequence (Q6PHR2 whole entry): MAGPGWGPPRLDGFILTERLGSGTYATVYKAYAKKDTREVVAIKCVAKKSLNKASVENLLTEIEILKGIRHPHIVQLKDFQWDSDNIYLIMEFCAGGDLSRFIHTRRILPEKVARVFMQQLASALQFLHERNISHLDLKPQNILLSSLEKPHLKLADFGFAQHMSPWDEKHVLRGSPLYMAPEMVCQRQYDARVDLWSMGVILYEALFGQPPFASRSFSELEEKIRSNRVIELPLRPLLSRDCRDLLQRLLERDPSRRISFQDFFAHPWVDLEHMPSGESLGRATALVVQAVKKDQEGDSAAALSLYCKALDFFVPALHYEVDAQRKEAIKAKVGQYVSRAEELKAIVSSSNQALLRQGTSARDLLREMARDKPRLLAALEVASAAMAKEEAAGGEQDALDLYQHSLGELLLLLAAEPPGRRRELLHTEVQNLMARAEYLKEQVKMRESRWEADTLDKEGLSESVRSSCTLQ
kinases (468) (Homo sapiens, UniProt P00533, L858R), sequence (P00533 25-1210 L858R, looked up): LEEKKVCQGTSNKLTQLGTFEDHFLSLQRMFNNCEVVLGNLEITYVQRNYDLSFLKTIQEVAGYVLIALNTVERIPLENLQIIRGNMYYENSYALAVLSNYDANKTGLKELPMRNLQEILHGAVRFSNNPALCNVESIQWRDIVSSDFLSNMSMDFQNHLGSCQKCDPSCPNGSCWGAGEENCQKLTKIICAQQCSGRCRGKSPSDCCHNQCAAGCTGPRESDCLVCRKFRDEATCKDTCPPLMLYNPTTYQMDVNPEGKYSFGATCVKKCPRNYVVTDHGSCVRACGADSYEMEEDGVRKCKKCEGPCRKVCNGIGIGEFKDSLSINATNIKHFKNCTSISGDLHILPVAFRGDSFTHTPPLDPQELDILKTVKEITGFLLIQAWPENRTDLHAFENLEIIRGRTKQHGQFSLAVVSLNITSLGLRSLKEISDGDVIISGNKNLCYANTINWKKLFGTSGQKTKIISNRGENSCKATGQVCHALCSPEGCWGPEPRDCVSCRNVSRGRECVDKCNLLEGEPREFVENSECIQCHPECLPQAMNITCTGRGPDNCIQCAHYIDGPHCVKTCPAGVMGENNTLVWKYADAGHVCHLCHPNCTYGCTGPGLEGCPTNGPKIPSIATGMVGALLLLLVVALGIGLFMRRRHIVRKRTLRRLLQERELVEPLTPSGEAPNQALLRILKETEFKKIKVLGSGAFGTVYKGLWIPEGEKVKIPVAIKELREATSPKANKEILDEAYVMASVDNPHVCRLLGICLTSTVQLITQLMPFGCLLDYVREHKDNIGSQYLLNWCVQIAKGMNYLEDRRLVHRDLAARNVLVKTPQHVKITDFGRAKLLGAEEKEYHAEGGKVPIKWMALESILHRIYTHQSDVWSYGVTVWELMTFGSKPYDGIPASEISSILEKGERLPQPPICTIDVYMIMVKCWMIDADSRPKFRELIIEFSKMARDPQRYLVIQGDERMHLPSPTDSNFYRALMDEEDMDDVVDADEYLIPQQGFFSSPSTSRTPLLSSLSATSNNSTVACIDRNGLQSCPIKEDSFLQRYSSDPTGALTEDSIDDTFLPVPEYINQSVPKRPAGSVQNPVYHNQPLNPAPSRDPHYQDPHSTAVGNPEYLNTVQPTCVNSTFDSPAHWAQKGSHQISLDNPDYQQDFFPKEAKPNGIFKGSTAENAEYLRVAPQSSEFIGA
kinases (468) (Homo sapiens, UniProt Q14289), sequence (Q14289 whole entry): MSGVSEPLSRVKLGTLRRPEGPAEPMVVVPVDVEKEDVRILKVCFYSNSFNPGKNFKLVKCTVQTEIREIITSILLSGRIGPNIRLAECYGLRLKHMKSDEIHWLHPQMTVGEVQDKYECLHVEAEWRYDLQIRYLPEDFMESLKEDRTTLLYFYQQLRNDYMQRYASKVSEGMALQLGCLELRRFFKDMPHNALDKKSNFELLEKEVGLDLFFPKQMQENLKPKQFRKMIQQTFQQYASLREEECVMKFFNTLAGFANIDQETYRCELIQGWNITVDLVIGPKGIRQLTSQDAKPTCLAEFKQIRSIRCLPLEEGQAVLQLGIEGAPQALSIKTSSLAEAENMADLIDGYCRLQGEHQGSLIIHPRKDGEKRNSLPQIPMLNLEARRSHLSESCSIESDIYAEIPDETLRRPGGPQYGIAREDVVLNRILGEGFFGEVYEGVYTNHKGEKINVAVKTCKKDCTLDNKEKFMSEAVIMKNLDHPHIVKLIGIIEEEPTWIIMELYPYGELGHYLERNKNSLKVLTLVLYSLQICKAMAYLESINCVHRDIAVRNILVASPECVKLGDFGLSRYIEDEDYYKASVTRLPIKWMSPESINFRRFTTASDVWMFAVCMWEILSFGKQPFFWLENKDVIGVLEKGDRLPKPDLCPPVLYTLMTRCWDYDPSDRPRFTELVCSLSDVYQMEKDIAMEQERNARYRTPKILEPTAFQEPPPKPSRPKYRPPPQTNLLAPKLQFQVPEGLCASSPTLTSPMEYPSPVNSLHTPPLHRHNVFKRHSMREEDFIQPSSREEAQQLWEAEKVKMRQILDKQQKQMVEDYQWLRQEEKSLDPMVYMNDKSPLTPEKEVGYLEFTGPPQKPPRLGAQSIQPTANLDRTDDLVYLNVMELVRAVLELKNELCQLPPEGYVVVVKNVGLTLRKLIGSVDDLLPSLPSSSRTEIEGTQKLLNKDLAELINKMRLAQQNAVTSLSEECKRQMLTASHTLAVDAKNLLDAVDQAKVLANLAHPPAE
kinases (468) (Homo sapiens, UniProt Q9BXA7), sequence (Q9BXA7 whole entry): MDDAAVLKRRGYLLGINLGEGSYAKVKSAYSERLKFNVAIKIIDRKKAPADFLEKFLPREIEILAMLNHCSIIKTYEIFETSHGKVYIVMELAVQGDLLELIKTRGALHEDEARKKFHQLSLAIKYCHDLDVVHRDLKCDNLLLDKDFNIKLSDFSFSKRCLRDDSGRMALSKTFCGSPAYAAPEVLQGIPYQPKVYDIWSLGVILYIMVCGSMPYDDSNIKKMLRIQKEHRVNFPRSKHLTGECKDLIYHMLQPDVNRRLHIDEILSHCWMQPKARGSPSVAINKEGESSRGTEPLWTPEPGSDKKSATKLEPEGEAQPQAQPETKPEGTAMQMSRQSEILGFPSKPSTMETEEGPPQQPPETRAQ

Structure (SMILES): C[C@H]1C[C@@H](O)CN(c2ncc(Cl)c(Nc3ccc4c(c3)c3c(c(=O)n4C)OCC(F)(F)[C@H](C4CC4)N3)n2)C1 [CCT373566_9A]
- Percent Control [1]: 91%
- Percent Control [2]: 81%
- Percent Control ([3]; kinase RPS6KA5(Kin.Dom.1-N-terminal) (Entrez RPS6KA5)): 93%
- Percent Control ([3]; kinase RPS6KA5(Kin.Dom.2-C-terminal) (Entrez RPS6KA5)): 96%
- Percent Control [4]: 88%
- Percent Control [5]: 96%
- Percent Control [6]: 100%
- Percent Control [7]: 99%
- Percent Control [8]: 86%
- Percent Control [9]: 100%
- Percent Control [10]: 88%
- Percent Control [11]: 97%
- Percent Control [12]: 98%
- Percent Control [13]: 100%
- Percent Control [14]: 100%
- Percent Control ([15]; kinase TYK2(JH1domain-catalytic) (Entrez TYK2)): 97%
- Percent Control ([15]; kinase TYK2(JH2domain-pseudokinase) (Entrez TYK2)): 89%
- Percent Control [16]: 94%
- Percent Control [17]: 95%
- Percent Control [18]: 94%
- Percent Control [19]: 100%
- Percent Control [20]: 91%
- Percent Control [21]: 100%
- Percent Control [22]: 97%
- Percent Control [23]: 98%
- Percent Control [24]: 100%
- Percent Control [25]: 12%
- Percent Control [26]: 93%
- Percent Control [27]: 89%
- Percent Control [28]: 83%
- Percent Control [29]: 100%
- Percent Control [30]: 100%
- Percent Control [31]: 100%
- Percent Control [32]: 87%
- Percent Control [33]: 87%
